Experimental data: article PMC8160850 (Viruses, 2021)
Values joined by “and” are separate entries in the source; they are usually repeats but may differ in a detail not shown here. Equal values may be shown once. Read-outs that look alike come from different tables or passages of the source.

Columns and labels:
MRC5 cells [1] = assay type: cell-based
MRC5 cells [2] = assay: Cell viability of uninfected cells in the screening; assay type: cell-based; conditions: 7 days
hepatitis C virus (HCV) = tested on: hepatitis C virus (HCV); set-up: method as in earlier work; conditions: Huh7-Lunet cells ref 60; cited from earlier work
HCMV AD169 = assay: Plaque reduction assay (PRA) in HFF cells; assay type: cell-based, human cytomegalovirus (HCMV)
HCMV TB4-UL83-EYFP [3] = assay type: cell-based, human cytomegalovirus (HCMV); conditions: 7 days p.i., MOI 0.03 IU/cell
AD169-GFP [4] = assay: Virus yield reduction assay (VYRA) with AD169-GFP; assay type: cell-based, human cytomegalovirus (HCMV); conditions: n = 4
[5] = tested on: HCMV TB4-UL83-EYFP genome; assay: Analysis of HCMV DNA replication by qPCR in infected MRC5 cells; assay type: cell-based, human cytomegalovirus (HCMV); conditions: for Decrease in viral genome copy number: B3 50 μM, MOI 0.01 IU/cell
MRC5 cells [6] = assay: MTT cell cytotoxicity assay; assay type: cell-based; conditions: for Selectivity index (SI), CC50/ED50: MTT CC50 / FRA ED50 TB4-UL83-EYFP; for Cytotoxicity (in words): MRC5, up to 100 μM, 7 days
[7] = MTT cell cytotoxicity assay; assay type: cell-based; conditions: human, uninfected MRC5 cells, MTT, uninfected MRC5, 7 days
[8] = tested on: HCMV AD169 gene expression (IE1, ppUL44, pp65, pp28); assay: Analysis of HCMV gene expression by Western blotting in infected MRC5 cells; assay type: cell-based, human cytomegalovirus (HCMV); conditions: GCV 16 μM, B3 50 μM; for IE1 expression: 6 and 12 h p.i., AD169 MOI 2 IU/cell; for Expression of ppUL44 and pp65: 48 h p.i.; for pp28 expression: 72 h and 96 h p.i.; for ppUL44 and pp65 levels: up to 24 h p.i.
AD169-GFP26 (UL97 M460I) [9] = assay: Virus yield reduction assay (VYRA) with AD169-GFP26; assay type: cell-based, human cytomegalovirus (HCMV); conditions: AD169-GFP26 (GCV-resistant), n = 4
AD169-GFP26 (UL97 M460I) [10] = assay: FRA with GCV-resistant AD169-GFP26 in MRC5 cells; assay type: cell-based, human cytomegalovirus (HCMV); conditions: MRC5, MOI 0.05 IU/cell, 7 days, n = 6
MRC5 cells [11] = assay: Intracellular ATP quantification; assay type: cell-based; conditions: for Reduction of intracellular ATP levels: 100 μM
AD169-GFP [12] = assay: FRA with AD169-GFP in MRC5 cells; assay type: cell-based, human cytomegalovirus (HCMV); conditions: MRC5, MOI 0.05 IU/cell, 7 days, n = 6
HCMV TB4-UL83-EYFP [13] = assay: Dose-response fluorescence reduction assay; assay type: cell-based, human cytomegalovirus (HCMV); conditions: FRA, MRC5, MOI 0.03 IU/cell, 7 days p.i.

Row | Structure (SMILES) | ED50 (HCMV AD169) [µM] | Inhibition of viral replication (YFP fluorescence) (HCMV TB4-UL83-EYFP [3]; 10 μM) | ED50 (AD169-GFP [4]) | Selectivity index (SI), CC50/ED50 (MRC5 cells [6]) | Cytotoxicity (in words) (MRC5 cells [6]; MTT) | CC50 at 7 days [7] [µM] | IE1 expression [8] | Expression of ppUL44 and pp65 [8] | pp28 expression [8] | ppUL44 and pp65 levels [8] | ED50 (AD169-GFP26 (UL97 M460I) [9]) [µM] | ED50 (AD169-GFP26 (UL97 M460I) [10]) [µM] | ED50 (AD169-GFP [12]) | Reduction of intracellular ATP levels (MRC5 cells [11]; 24 h post treatment) | other results
1 | CCOc1ccccc1[C@H]1C(C#N)=C(SCC(=O)OC)NC(=O)[C@@H]1C#N [A4] |  |  |  |  |  |  |  |  |  |  |  |  |  |  | Solubility in culture medium (precipitates) (MRC5 cells [1]): not soluble; Cytotoxicity (MRC5 cells [2]; 10 μM, uninfected MRC5): caused evident cytotoxicity
2 | OC[C@@H](O)Cn1c(Cc2cccc3ccccc23)nc2ccccc21 [B3] | 7.9 ± 3.5 | inhibited viral replication | 5.1 ± 3.3 µM | > 20 | did not cause evident cytotoxicity up to 100 μM | > 100 | neither GCV nor B3 treatment affected IE1 expression | decrease | strongly inhibited | not affected | 9.8 ± 15.6 | 17.6 ± 12.8 | 7.9 µM and 7.9 ± 2.7 µM |  | Effect on protein expression and hepatitis C virus replication (hepatitis C virus (HCV)): did not affect either protein expression nor hepatitis C virus replication; Decrease in viral genome copy number ([5]; 72 h p.i.): ~ 4 fold; Decrease in viral genome copy number ([5]; 120 h p.i.): 6 fold; Effect on intracellular ATP levels (MRC5 cells [11]; all time points analyzed (24, 72, 144 h)): minimal effects
3 | Cc1ccc(-c2nnc(Nc3ccc(CC(N)=O)cc3)c3ccccc23)cc1S(=O)(=O)NC1CCCCC1 [B6] |  | inhibited viral replication |  | < 5 |  | ~10 |  |  |  |  |  |  |  | more than 50% | CC50 (MRC5 cells [6]; MTT, uninfected MRC5, 7 days): 10.7 ± 2.3 µM; ED50 (HCMV TB4-UL83-EYFP [13]): 2.1 ± 0.6 µM; Reduction of intracellular ATP levels (MRC5 cells [11]; 72 h post treatment): ~100%
4 | O=C(O)C[C@H]1S/C(=N/N=C/c2c(OCc3ccccc3Cl)ccc3ccccc23)NC1=O [C6] |  |  |  |  | low cytotoxicity | > 100 |  |  |  |  |  |  |  | more than 30% | Cell morphology upon microscopic evaluation (MRC5 cells [1]): significantly altered; Inhibition of viral replication (YFP fluorescence) (HCMV TB4-UL83-EYFP [3]; 100 μM): impaired viral replication; Reduction of cell viability (MRC5 cells [2]; 100 μM, MTS and CellTiter Glo): ≤ 40%
5 | Nc1nc(O)c2ncn(COC(CO)CO)c2n1 [GCV, Ganciclovir, reference compound] | 1.3 ± 0.9 |  | 0.7 µM and 0.7 ± 0.4 µM |  | did not cause detectable cytotoxic effects at any concentration tested | > 100 | neither GCV nor B3 treatment affected IE1 expression | decrease | strongly inhibited | not affected | 4.7 ± 4.8 | 21.7 ± 9.6 | 2.3 µM and 2.3 ± 1.9 µM |  | Viral genome copy number (in words) ([5]; GCV 16 μM, starting from 72 h p.i.): significantly reduced viral genome copy number
